Data as given in patent publication US9611252B2 (LifeSci Pharmaceuticals, Inc., priority 2013, dated 2017).

Assays:
human Plasma Kallikrein = human Plasma Kallikrein (Homo sapiens (Human), UniProt P03952); experiment: In vitro enzyme inhibition of human plasma kallikrein (PFR-AMC cleavage); assay type: biochemical; details: human plasma kallikrein, Pro-Phe-Arg-AMC substrate, 37° C.; read-out: hPK IC50
Summary of the method: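 Compound pre-incubated with human plasma kallikrein 5 min at 37° C in 50 mM Tris-HCl pH 7.5, 150 mM NaCl, 0.01% Triton X-100. Reaction started with PFR-AMC, cleavage read kinetically at 37° C every 43 s for 1 h.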

kallikrein = kallikrein (Homo sapiens (Human), UniProt P03952); experiment: In vitro cellular assay (contact assay): kallikrein activity in ellagic acid-activated human plasma, substrate Z-FR-2-AMC; assay type: biochemical; details: human plasma activated with ellagic acid, Z-FR-2-AMC substrate, 37° C.; read-out: Contact Assay EC50
kallikrein, sequence (P03952 20-638): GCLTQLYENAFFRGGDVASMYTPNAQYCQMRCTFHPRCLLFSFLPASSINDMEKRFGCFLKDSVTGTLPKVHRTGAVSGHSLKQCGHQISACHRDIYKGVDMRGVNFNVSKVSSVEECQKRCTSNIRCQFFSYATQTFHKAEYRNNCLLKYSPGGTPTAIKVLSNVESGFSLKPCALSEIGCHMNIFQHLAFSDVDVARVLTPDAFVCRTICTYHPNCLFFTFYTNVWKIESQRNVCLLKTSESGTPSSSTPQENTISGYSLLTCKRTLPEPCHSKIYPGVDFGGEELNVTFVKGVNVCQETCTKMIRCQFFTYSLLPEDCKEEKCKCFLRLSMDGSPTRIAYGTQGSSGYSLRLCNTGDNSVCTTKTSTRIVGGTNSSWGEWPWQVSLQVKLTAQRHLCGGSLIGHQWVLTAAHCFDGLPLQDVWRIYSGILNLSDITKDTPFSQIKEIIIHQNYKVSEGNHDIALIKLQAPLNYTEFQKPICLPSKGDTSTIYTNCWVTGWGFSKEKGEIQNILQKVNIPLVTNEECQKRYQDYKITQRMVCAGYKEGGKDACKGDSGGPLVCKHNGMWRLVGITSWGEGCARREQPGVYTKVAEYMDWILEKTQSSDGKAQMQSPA
Method: The ability of the compounds disclosed herein to inhibit cellular kallikrein activity was quantified and the respective EC50 value was determined.
All dilutions were prepared in an assay buffer comprising 50 mM Tris-HCl pH 7.2, 150 mM NaCl, and 0.01% Triton X-100.
The ten solutions of the test compounds, prepared by serial dilution, were further diluted 50-fold in the assay buffer.
Human plasma is thawed on ice and centrifuged for 15 min at 4° C. to remove platelets. A 1 mM stock solution of ellagic acid is diluted to 8 μM and mixed with human plasma, after removing platelets, at a ratio of 1:0.8.
A 22.5 μL volume of the final mixture of human plasma and ellagic acid was added to a 96-well microwell plate and the plate was incubated for 15 min at 37° C.
The CINH inhibitor at various concentrations, prepared by serial dilutions as described above, were added to the inhibitor control wells. […] Each CINH concentration is tested in duplicates.
The test compounds at various concentrations, also prepared by serial dilutions as described above, are added to the test wells. […] Each test compound concentration was tested in duplicates.
In addition to the inhibitor control and test wells, the 96 well assay plate includes positive control wells which contained the mixture of human plasma and ellagic acid without C1NH inhibitor or test compounds, and background wells which contained neither the mixture of human plasma and ellagic acid nor the test compounds. The total volume of liquid in positive control and background wells was brought up to 35 μL, using the assay buffer.
The assay plate containing C1NH inhibitors and test compounds mixed with human plasma and ellagic acid and appropriate controls was incubated at 37° C. for 5 min. […] The reagents were mixed well by shaking the plate gently for 30 sec.
The enzyme reaction was quantified by immediate kinetic reading of the assay plate using excitation/emission wavelengths of 330 nm/440 nm respectively. Fluorescence intensity was recorded for 60 min, using a time interval of 43 sec.
The inhibition activity of the test compounds were evaluated using the IC50 values, calculated according to the dose-response curve of the test compounds, fitted using the “log(inhibitor)-response (variable slope)” equation in GraphPadPrism software (GraphPad Software, Inc.).
The percentage inhibition was calculated using the following equation:
[formula] where, Mean(BG) is the average value of the fluorescence intensity of the background wells and Mean(PC) is the average value of the fluorescence intensity of the positive control wells.
Table 4 provides the EC50 values of various compounds disclosed herein.

human Plasma Kallikrein, sequence (P03952 20-638): as above

Row | Structure (SMILES) | IC50 (human Plasma Kallikrein) | EC50 (kallikrein)
1 | Cc1cnc2c(S(C)(=O)=O)cc(Cc3cc(C(=O)NCc4cnc5[nH]cc(Cl)c5c4)ccn3)cc2c1 [Example 19, N-((3-chloro-1H-pyrrolo[2,3-b]pyridin-5-yl)methyl)-2-((3-methyl-8-(methylsulfonyl)quinolin-6-yl)methyl)isonicotinamide] | < 100 nM | < 100 nM
2 | Cc1cnc2c(C(N)=O)cc(Cc3cc(C(=O)NCc4c(C)cc(N)nc4C)ccn3)cc2c1 [Example 77, 6-((4-(((6-amino-2,4-dimethylpyridin-3-yl)methyl)carbamoyl)pyridin-2-yl)methyl)-3-methylquinoline-8-carboxamide] | < 100 nM | < 100 nM
3 | NC(=O)c1cc(Cc2cc(C(=O)NCc3ccc4[nH]cc(Cl)c4c3F)ccn2)cc2cc(Cl)cnc12 [Example 65, 3-chloro-6-((4-(((3-chloro-4-fluoro-1H-indol-5-yl)methyl)carbamoyl)pyridin-2-yl)methyl)quinoline-8-carboxamide] | < 100 nM | < 100 nM
4 | Cc1ccc2cc(Cc3cc(C(=O)NCc4cc5c(Cl)c[nH]c5cc4F)ccn3)ccc2n1 [Example 110, N-((3-chloro-6-fluoro-1H-indol-5-yl)methyl)-2-((2-methylquinolin-6-yl)methyl)isonicotinamide] | < 100 nM | 100 to 1000 nM
5 | Cc1nc(N)ccc1CNC(=O)c1ccnc(Cc2cc(F)c3ncc(Cl)cc3c2)c1 [Example 91, N-(6-amino-2-methyl-pyridin-3-ylmethyl)-2-(3-chloro-8-fluoro-quinolin-6-ylmethyl)-isonicotinamide] | < 100 nM | < 100 nM
6 | Cc1cnc2c(S(C)(=O)=O)cc(Cc3cc(C(=O)NCc4cc5c(Cl)c[nH]c5cc4F)ccn3)cc2c1 [Example 17, N-((3-chloro-6-fluoro-1H-indol-5-yl)methyl)-2-((3-methyl-8-(methylsulfonyl)quinolin-6-yl)methyl)isonicotinamide] | < 100 nM | < 100 nM
7 | Cc1ccc2cc(Cc3cc(C(=O)NCc4c(C)cc(N)nc4C)ccn3)ccc2n1 [Example 113, N-((6-amino-2,4-dimethylpyridin-3-yl)methyl)-2-((2-methylquinolin-6-yl)methyl)isonicotinamide] | < 100 nM | < 100 nM
8 | NC(=O)c1cc(Cc2cc(C(=O)NCc3cnc4[nH]cc(Cl)c4c3)ccn2)cc2cc(Cl)cnc12 [Example 61, 3-chloro-6-((4-(((3-chloro-1H-pyrrolo[2,3-b]pyridin-5-yl)methyl)carbamoyl)pyridin-2-yl)methyl)quinoline-8-carboxamide] | < 100 nM | 100 to 1000 nM
9 | Cc1cnc2c(C(=O)O)cc(Cc3cc(C(=O)NCc4c(C)cc(N)nc4C)ccn3)cc2c1 [Example 84, 6-((4-(((6-amino-2,4-dimethylpyridin-3-yl)methyl)carbamoyl)pyridin-2-yl)methyl)-3-methylquinoline-8-carboxylic acid] | < 100 nM | < 100 nM
10 | Cc1cnc2c(C(N)=O)cc(Cc3cc(C(=O)NCc4ccc5[nH]cc(Cl)c5c4F)ccn3)cc2c1 [Example 81, 6-((4-(((3-chloro-4-fluoro-1H-indol-5-yl)methyl)carbamoyl)pyridin-2-yl)methyl)-3-methylquinoline-8-carboxamide] | < 100 nM | 100 to 1000 nM
11 | NC(=O)c1cc(Cc2cc(C(=O)NCc3ccc4c(N)nccc4c3)ccn2)cc2cc(Cl)cnc12 [Example 64, 6-((4-(((1-aminoisoquinolin-6-yl)methyl)carbamoyl)pyridin-2-yl)methyl)-3-chloroquinoline-8-carboxamide] | < 100 nM | < 100 nM
12 | Cc1cc(N)nc(C)c1CNC(=O)c1ccnc(Cc2cc(S(C)(=O)=O)c3ncc(Cl)cc3c2)c1 [Example 67, N-((6-amino-2,4-dimethylpyridin-3-yl)methyl)-2-((3-chloro-8-(methylsulfonyl)quinolin-6-yl)methyl)isonicotinamide] | < 100 nM | < 100 nM
13 | Cc1cnc2c(C(N)=O)cc(Cc3cc(C(=O)NCc4cc5c(Cl)c[nH]c5cc4F)ccn3)cc2c1 [Example 78, 6-((4-(((3-chloro-6-fluoro-1H-indol-5-yl)methyl)carbamoyl)pyridin-2-yl)methyl)-3-methylquinoline-8-carboxamide] | < 100 nM | < 100 nM
14 | Cc1cnc2c(C#N)cc(Cc3cc(C(=O)NCc4cnc5[nH]cc(Cl)c5c4)ccn3)cc2c1 [Example 73, N-((3-chloro-1H-pyrrolo[2,3-b]pyridin-5-yl)methyl)-2-((8-cyano-3-methylquinolin-6-yl)methyl)isonicotinamide] | < 100 nM | 100 to 1000 nM
15 | Cc1cc(N)nc(C)c1CNC(=O)c1ccnc(Cc2cc(Cl)c3ncc(Cl)cc3c2)c1 [Example 100, N-((6-amino-2,4-dimethylpyridin-3-yl)methyl)-2-((3,8-dichloroquinolin-6-yl)methyl)isonicotinamide] | < 100 nM | < 100 nM
16 | O=C(NCc1cnc2[nH]cc(Cl)c2c1)c1ccnc(Cc2ccc3ncc(Cl)cc3c2)c1 [Example 38, N-(3-Chloro-1H-pyrrolo[2,3-b]pyridin-5-ylmethyl)-2-(3-chloro-quinolin-6-ylmethyl)-isonicotinamide] | < 100 nM | 100 to 1000 nM

Second part, the compound after the results:

Row | IC50 (human Plasma Kallikrein) | EC50 (kallikrein) | Structure (SMILES)
17 | < 100 nM | < 100 nM | Nc1nccc2cc(CNC(=O)c3ccnc(Cc4ccc5ncc(Cl)cc5c4)c3)ccc12 [Example 31, N-((1-aminoisoquinolin-6-yl)methyl)-2-((3-chloroquinolin-6-yl)methyl)isonicotinamide]
18 | < 100 nM | 100 to 1000 nM | O=C(NCc1cc2c(Cl)c[nH]c2cc1F)c1ccnc(Cc2ccc3ncc(Cl)cc3c2)c1 [Example 33, N-((3-chloro-6-fluoro-1H-indol-5-yl)methyl)-2-((3-chloroquinolin-6-yl)methyl)isonicotinamide]
19 | < 100 nM | < 100 nM | Cc1ccc2ncc(Cc3cc(C(=O)NCc4ccc5c(N)nccc5c4)ccn3)cc2c1 [Example 115, N-((1-aminoisoquinolin-6-yl)methyl)-2-((6-methylquinolin-3-yl)methyl)isonicotinamide]
20 | < 100 nM | < 100 nM | Cc1cc(N)nc(C)c1CNC(=O)c1ccnc(Cc2ccc3ncc(Cl)cc3c2)c1 [Example 35, N-((6-amino-2,4-dimethylpyridin-3-yl)methyl)-2-((3-chloroquinolin-6-yl)methyl)isonicotinamide]
21 | < 100 nM | 100 to 1000 nM | Cc1cnc2ccc(Cc3cc(C(=O)NCc4cc5c(Cl)c[nH]c5cc4F)ccn3)cc2c1 [Example 143, N-((3-chloro-6-fluoro-1H-indol-5-yl)methyl)-2-((3-methylquinolin-6-yl)methyl)isonicotinamide]
22 | < 100 nM | < 100 nM | Cc1cnc2ccc(Cc3cc(C(=O)NCc4ccc5c(N)nccc5c4)ccn3)cc2c1 [Example 142, N-((1-aminoisoquinolin-6-yl)methyl)-2-((3-methylquinolin-6-yl)methyl)isonicotinamide]
23 | < 100 nM | < 100 nM | Cc1cnc2c(S(C)(=O)=O)cc(Cc3cc(C(=O)NCc4ccc5c(N)nccc5c4)ccn3)cc2c1 [Example 16, N-((1-aminoisoquinolin-6-yl)methyl)-2-((3-methyl-8-(methylsulfonyl)quinolin-6-yl)methyl)isonicotinamide]
24 | < 100 nM | 100 to 1000 nM | Cc1ccc2ncc(Cc3cc(C(=O)NCc4cc5c(Cl)c[nH]c5cc4F)ccn3)cc2c1 [Example 116, N-((3-chloro-6-fluoro-1H-indol-5-yl)methyl)-2-((6-methylquinolin-3-yl)methyl) isonicotinamide]
25 | < 100 nM | < 100 nM | Nc1nccc2cc(CNC(=O)c3ccnc(Cc4cnc5ccc(F)cc5c4)c3)ccc12 [Example 118, N-((1-aminoisoquinolin-6-yl)methyl)-2-((6-fluoroquinolin-3-yl)methyl)isonicotinamide]
26 | < 100 nM | < 100 nM | Cc1cnc2ccc(Cc3cc(C(=O)NCc4c(C)cc(N)nc4C)ccn3)cc2c1 [Example 144, N-((6-amino-2,4-dimethylpyridin-3-yl)methyl)-2-((3-methylquinolin-6-yl)methyl)isonicotinamide]
27 | < 100 nM | 100 to 1000 nM | Cc1ccc2ncc(Cc3cc(C(=O)NCc4ccc(N)nc4C)ccn3)cc2c1 [Example 117, N-((6-amino-2-methylpyridin-3-yl)methyl)-2-((6-methylquinolin-3-yl)methyl)isonicotinamide]
